Patent publication US11413321B2, “Pharmaceutical composition for use in increasing hair, modifying scalp or skin, healing a wound, promoting osteogenesis, or modifying hair” (priority 2017, dated 2022)

Tested on: Itga4
Experiment: Quantitative PCR of dorsal tissues after subcutaneous administration (Itga4)
Format: in vivo, Wistar rat
Details: 20 μL per location into rat dorsal part; vs control without administration; FIG. 15
Procedure: 4.) Integrin subunit alpha 4 (Itga4), Rattus norvegicus: mRNA 3,736 bp NM 001107737.1 GI: 157819948 Next, a change in gene expression in tissues was examined. Three regions were set between the head and the tail of the dorsal part of a 12-week-old Wistar rat (male), and each region was divided between the left and the right of the backbone into two regions to set a total of six regions on the dorsal part. Milk or palmitic acid was injected in an amount of 20 μL per location at two locations in the vicinity of the center of each region. The distance between the two locations was 1 cm. The collected tissue fragments were frozen with liquid nitrogen, and stored at −80° C. […] Analysis of gene expression by quantitative PCR was performed in the following manner: Integrated DNA technologies, Inc (Skokie, Ill., USA) was requested to design and synthesize gene-specific primers and probes, and using PrimeTime Gene Expression Master Mix Reagent (Integrated DNA Technologies, Inc, Skokie, Ill., USA) and Rotor-Gene Q PCR Apparatus (QIAGEN GmbH, Hilden, Germany), PCR analysis was performed twice per gene per specimen to analyze the expression level of a target gene. […]

## CCCCCCCCCCCCCCCC(=O)O [palmitic acid]
  expression level of Itga4 in tissues: greatly increased
